Patent US20100203110A1, “Therapeutics for Cancer Using 3-Bromopyruvate and Other Selective Inhibitors of ATP Production” (The Johns Hopkins University, priority 2006, published 2010)
Entries after “also recorded” stand apart in the source; their conditions may differ.

Tests used:
[1] = Survival analysis, treatment versus control group (Kaplan-Meier); type: in vivo, rabbit; conditions: 11 animals, control 18.6 days
From the text: FIG. 9 is a graph showing survival of untreated (control) versus 3-bromopyruvate treated animals.
The control group consisted of 10 animals and the treatment group consisted of 11 animals. The Kaplan-Meier method was used to estimate survival curves. […] The mean survival time in the control group is 18.6 days as compared to the treatment group, with 50.0 days.

[2] = target: T1, Type II hexokinase (Homo sapiens, UniProt P52789); experiment: Binding of 14C-labeled 3-bromopyruvate in Hep G2 cells (western blot / autoradiograph); conditions: 1 hour in HBSS
T1 construct: The cells were harvested, total protein extracted, purified and used to run a western blot; endogenous in cells; host or cells: Hep G2
T1 sequence (P52789 1-917): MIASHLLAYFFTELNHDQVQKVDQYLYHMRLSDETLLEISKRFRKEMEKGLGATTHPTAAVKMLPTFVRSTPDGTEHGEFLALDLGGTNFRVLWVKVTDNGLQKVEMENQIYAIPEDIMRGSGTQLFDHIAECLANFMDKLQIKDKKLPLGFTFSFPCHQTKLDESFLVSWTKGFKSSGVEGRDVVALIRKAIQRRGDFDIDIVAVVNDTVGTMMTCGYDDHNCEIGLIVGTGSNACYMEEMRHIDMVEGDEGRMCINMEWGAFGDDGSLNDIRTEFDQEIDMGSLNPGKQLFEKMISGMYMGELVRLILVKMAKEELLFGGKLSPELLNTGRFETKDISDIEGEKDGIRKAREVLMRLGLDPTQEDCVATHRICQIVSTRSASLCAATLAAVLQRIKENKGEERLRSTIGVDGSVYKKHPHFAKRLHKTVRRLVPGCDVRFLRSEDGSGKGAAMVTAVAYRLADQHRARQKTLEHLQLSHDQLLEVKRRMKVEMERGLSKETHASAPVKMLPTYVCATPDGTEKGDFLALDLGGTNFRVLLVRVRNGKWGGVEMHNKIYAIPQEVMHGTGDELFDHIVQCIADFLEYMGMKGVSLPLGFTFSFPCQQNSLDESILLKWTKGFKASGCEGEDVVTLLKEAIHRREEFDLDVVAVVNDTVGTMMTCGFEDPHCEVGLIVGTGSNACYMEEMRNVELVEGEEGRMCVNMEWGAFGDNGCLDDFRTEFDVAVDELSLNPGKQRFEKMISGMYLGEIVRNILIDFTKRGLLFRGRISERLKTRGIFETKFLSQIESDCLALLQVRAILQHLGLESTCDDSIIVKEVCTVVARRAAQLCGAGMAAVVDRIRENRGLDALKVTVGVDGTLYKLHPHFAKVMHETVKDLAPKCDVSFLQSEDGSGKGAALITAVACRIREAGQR
Procedure: In a further study, the human hepatocellular carcinoma cell line (HCC), Hep G2, was treated with ^14C-labeled 3-bromopyruvate for a period of 1 hour in HBSS. The cells were harvested, total protein extracted, purified and used to run a western blot. They were then transferred onto a membrane, probed with a Type II hexokinase specific antibody and the antibody binding signal was captured on film through Chemiluminescent detection system (western blotting). The corresponding gel was also separately exposed to an autoradiograph.

[3] = tested on: liver implanted VX2 tumors; experiment: Single direct intraarterial bolus injection into liver implanted VX2 tumors, histology; type: in vivo, rabbit
From the text: The rabbit VX2 tumor was selected for implantation in the liver because of the similarities of its blood supply to that of human hepatomas. Other attributes of this tumor include rapid tumor growth, development of a sizable tumor that can be readily identified by x-ray imaging (fluoroscopy), and a biochemical phenotype characteristic of advanced stage tumors, i.e., high glycolysis and elevated levels of mitochondrial bound hexokinase. In addition, the rabbit is large enough that selective manipulation of catheters in the hepatic artery from the common femoral artery for delivery of agents is possible. Adult New Zealand white rabbits (32 total, Robinson Services, Inc.) weighing 3.5-4.2 kg were used. Studies with these animals were approved by the Johns Hopkins University Animal Care and Use Committee and carried out according to their guidelines. For successful implantation of the VX2 tumor into the liver, it was first grown for 2 weeks on the hind leg of a carrier rabbit. Each carrier rabbit was used to supply tumor cells for implantation into the left lobe of the liver of 2 separate rabbits. All animals, carriers and recipients, were anesthetized with a mixture of acepromazine (2.5 mg/kg) and ketamine hydrochloride (44 mg/kg) administered intramuscularly. Intravenous access was gained via a marginal ear vein and sodium pentothal was given intravenously to maintain anesthesia. The VX2 tumor was then excised from the carrier rabbit and placed in Hanks solution. Chunks of the tumor were minced in the same solution. Then, the abdomens of the recipient rabbits were shaved and prepped with betadine after which a midline subxyphoid incision was made. The anterior surface of the liver was exposed and tumor cells (0.1-0.2 ml) from the minced donor tumor were directly implanted onto the left lobe of the liver using the outer cannula of a 21-gauge angiocatheter. This method allows the growth of a single solitary, well-demarcated tumor in the liver of each recipient rabbit. The abdomen was closed in 2 layers. Proper aseptic technique was rigorously observed during each implantation. After surgery, animals were returned to their cages, kept warm with blankets, and monitored in the animal laboratory under the direct supervision of a physician or a technician until they recovered from anesthesia. […] The tumors were allowed to grow for another 14 days at which time they reached an ellipsoidal shape with dimension of approximately 1.5×1.8×2.5 cm.
The solutions of 3-bromopyruvate (3-BrPA, Sigma Chemical Co., St. Louis, Mo.) were prepared in phosphate-buffered saline (PBS). After adjusting the pH to 7.0 with NaOH the solutions were sterilized via Millipore's Millexâ GV 0.22 mm filter unit and used immediately. Freshly made solutions were used in all studies reported here.
Administration of anesthesia, intravenous access and sodium pentothal anesthesia were carried out as described in Example 12. Transcatheter hepatic artery injection of 3-BrPA was performed under fluoroscopy. The animals were brought to the angiography suite and intubated using a size 3.0 mm endotracheal tube (Mallinkrodt Medical, St. Louis, Mo.) but not ventilated. Surgical cut-down was performed to gain access into the right common femoral artery, after which a 3 French sheath (Cook Inc., Bloomington, Ind.) was placed. A specially manufactured 2 French catheter with a tip in the shape of a hockey-stick (JB1 catheter, Cook Inc., Bloomington, Ind.) was manipulated into the celiac axis after which a celiac arteriogram was performed in order to delineate the blood supply to the liver and confirm the location of the tumor. The tumor could readily be visualized as a region of hypervascular blush located on the left side of the liver near the gastric fundus. The left hepatic artery, which usually provides most of the blood flow to the tumor, was selectively catheterized via the common hepatic artery. […]

[4] = single intraarterial injection, 4 days

O=C(O)C(=O)CBr [3-bromopyruvate]
mean survival time [1]: 50.0 days
binding to Type II hexokinase [2]: directly binds
damage to 9 major tissues ([3]; 4 days after single intraarterial injection): In no case was there evidence for damage
damage to portal veins, sinusoids, bile ducts and arteriolar complexes ([3]; much higher concentrations (5 mM), intraarterial): only apparent damage occurring occasionally in the peribiliary arteriolar complexes
necrosis (non-viable cells) in tumor sections outside the central core ([3]; single IA bolus 25 ml 0.5 mM, 4 days): ~100%
total number of viable cells in liver implanted tumors, lowest reached ([3]; single injection): 10%
maximal number of non-viable cells observed in any one experiment ([3]; single intraarterial injection): 90%
total number of non-viable cells in the tumor population [3, 4]: 84±5%
viable cells in the entire tumor population [3, 4]: 16±5%
viability / damage of surrounding liver tissue ([3]; single intraarterial injection, 4 days, listed as 3-BrPA): no damage; also recorded: remained completely viable
